Experimental data published in the supplement of paper PMC10307832.

How the values were obtained:
Assay in all cases: relative viability (nuclei count vs DMSO), 5 days (fraction); higher = more cells survive
[1] = compound: CC1=CC(=CC=C1)NC2=NC(=CS2)C3=CC=NC=C3 + CS(=O)(=O)CCNCc1ccc(-c2ccc3ncnc(Nc4ccc(OCc5cccc(F)c5)c(Cl)c4)c3c2)o1 [Lapatinib] (partner 2 µM)
How it was run: (§1)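 Lung cancer cell lines, seeded in 1536-well plates, were treated the following day by pin tool with a single drug or with five library-drug doses (not always all listed) in √10 steps on top of a fixed anchor-drug dose. Cells were fixed and nuclei stained in one step after 5 days, and nuclei were counted. Relative viability is the nuclei count for treated wells divided by that for vehicle wells, reported as medians of duplicate plates.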

[2] = compound: CC1=CC(=CC=C1)NC2=NC(=CS2)C3=CC=NC=C3 + Cc1cc(Nc2cc(N3CCN(C)CC3)nc(Sc3ccc(NC(=O)C4CC4)cc3)n2)n[nH]1 [Tozasertib] (partner 0.1 µM)
How it was run: as §1

[3] = compound: CC1=CC(=CC=C1)NC2=NC(=CS2)C3=CC=NC=C3 + O=C(c1cc(Cc2n[nH]c(=O)c3ccccc23)ccc1F)N1CCN(C(=O)C2CC2)CC1 [Olaparib] (partner 8 µM)
How it was run: as §1

[4] = compound: CC1=CC(=CC=C1)NC2=NC(=CS2)C3=CC=NC=C3 + CC(C)C[C@H](NC(=O)[C@H](Cc1ccccc1)NC(=O)c1cnccn1)B(O)O [Bortezomib] (partner 0.002 µM)
How it was run: as §1

Row | Cell Line | relative viability ([1]; first compound 0.08 µM) | relative viability ([1]; first compound 0.253 µM) | relative viability ([1]; first compound 0.8 µM) | relative viability ([1]; first compound 2.53 µM) | relative viability ([1]; first compound 8 µM) | relative viability ([2]; first compound 0.08 µM) | relative viability ([2]; first compound 0.253 µM) | relative viability ([2]; first compound 0.8 µM) | relative viability ([2]; first compound 2.53 µM) | relative viability ([2]; first compound 8 µM) | relative viability ([3]; first compound 0.08 µM) | relative viability ([3]; first compound 0.253 µM) | relative viability ([3]; first compound 0.8 µM) | relative viability ([3]; first compound 2.53 µM) | relative viability ([3]; first compound 8 µM) | relative viability ([4]; first compound 0.08 µM) | relative viability ([4]; first compound 0.253 µM) | relative viability ([4]; first compound 0.8 µM) | relative viability ([4]; first compound 2.53 µM) | relative viability ([4]; first compound 8 µM)
1 | NCI-H460 | 0.875 | 0.901 | 0.887 | 1.11 | 0.692 | 0.486 | 0.337 | 0.395 | 0.0737 | 0.113 | 0.368 | 0.344 | 0.355 | 0.278 | 0.263 | 1.03 | 1.13 | 0.945 | 0.902 | 0.843
2 | LCLC-97TM1 |  |  | 1.04 | 1.03 | 1.27 | 0.2 | 0.236 | 0.246 | 0.177 | 0.325 | 0.419 | 0.304 | 0.343 | 0.411 | 0.379 | 0.715 | 0.478 | 0.476 | 0.365 | 0.463
3 | NCI-H838 | 0.822 | 0.871 | 0.924 | 0.742 | 0.865 | 0.229 | 0.227 | 0.242 | 0.234 | 0.225 | 0.567 | 0.545 | 0.714 | 0.685 | 0.521 | 0.658 | 0.742 | 0.934 | 0.861 | 0.651
4 | NCI-H1437 | 0.772 | 0.626 | 0.684 | 0.479 | 0.545 | 0.417 | 0.465 | 0.448 | 0.448 | 0.407 | 0.628 | 0.585 | 0.525 | 0.478 | 0.371 | 0.473 | 0.523 | 0.566 | 0.437 | 0.355
5 | HOP-62 | 0.94 | 1.02 | 1.2 | 1 | 0.909 | 0.378 | 0.381 | 0.363 | 0.41 | 0.421 | 0.445 | 0.5 | 0.471 | 0.48 | 0.512 | 0.673 | 0.784 | 1.16 | 0.588 | 0.496
6 | NCI-H2087 | 0.823 | 0.788 | 0.846 | 1.11 | 0.829 | 0.197 | 0.229 | 0.245 | 0.19 | 0.216 | 0.596 | 0.503 | 0.607 | 0.448 | 0.462 | 0.708 | 0.825 | 0.844 | 0.666 | 0.3
